Paper PMC7570871, “Evaluation of a New ^177Lu-Labeled Somatostatin Analog for the Treatment of Tumors Expressing Somatostatin Receptor Subtypes 2 and 5” (Molecules, 2020)

What was measured:
human SST2 = molecular target: T1, human SST2 (Homo sapiens, UniProt P30874); test: Competition binding assay with 125I-SS-14 on membranes of HEK-SST2 cells; details: 125I-SS-14 radioligand
T1 construct: expressed in transfected cells; host or cells: HEK cells (HEK-SST2), stably transfected
Method: (§1) Human Embryonic Kidney (HEK) cells were stably transfected with plasmids encoding the human SST2 and SST5 (HEK-SST2 and HEK-SST5) and cultivated as previously described. […] Nontransfected HEK cells were used as negative control.
(§2) Binding assays were performed as described previously.

human SST5 = molecular target: T2, human SST5 (Homo sapiens, UniProt P35346); test: Competition binding assay with 125I-SS-14 on membranes of HEK-SST5 cells; details: 125I-SS-14 radioligand
T2 construct: expressed in transfected cells; host or cells: HEK cells (HEK-SST5), stably transfected
Method: as §1, §2

T1 sequence (P30874 whole entry): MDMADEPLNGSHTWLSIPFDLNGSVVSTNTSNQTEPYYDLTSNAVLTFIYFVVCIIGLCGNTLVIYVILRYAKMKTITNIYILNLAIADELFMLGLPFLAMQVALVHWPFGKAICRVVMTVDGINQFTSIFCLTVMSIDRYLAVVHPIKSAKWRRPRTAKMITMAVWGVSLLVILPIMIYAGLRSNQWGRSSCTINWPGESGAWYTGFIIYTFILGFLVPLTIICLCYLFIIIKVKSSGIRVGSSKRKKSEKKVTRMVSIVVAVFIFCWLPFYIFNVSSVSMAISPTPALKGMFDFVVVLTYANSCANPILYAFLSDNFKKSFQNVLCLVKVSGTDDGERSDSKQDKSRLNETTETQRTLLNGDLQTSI
T2 sequence (P35346 whole entry): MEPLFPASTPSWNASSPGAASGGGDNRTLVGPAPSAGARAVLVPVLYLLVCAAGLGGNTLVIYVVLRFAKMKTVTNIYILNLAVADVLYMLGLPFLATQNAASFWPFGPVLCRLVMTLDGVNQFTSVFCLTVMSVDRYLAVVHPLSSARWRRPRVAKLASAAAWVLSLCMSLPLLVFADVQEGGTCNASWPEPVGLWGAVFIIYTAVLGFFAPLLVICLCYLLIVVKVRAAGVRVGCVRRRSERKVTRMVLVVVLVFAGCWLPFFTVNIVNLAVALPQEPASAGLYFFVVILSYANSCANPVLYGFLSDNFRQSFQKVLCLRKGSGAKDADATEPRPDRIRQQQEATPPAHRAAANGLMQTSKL

- IC50 (human SST2): 0.51 nM
- IC50 (human SST5): 4.8 nM
SMILES: C[C@@H](O)[C@@H]1NC(=O)[C@H](CCCCN)NC(=O)[C@@H](Cc2c[nH]c3ccccc23)NC(=O)[C@H](Cc2cccc3ccccc23)NC(=O)[C@@H](NC(=O)[C@@H](Cc2ccccc2)NC(=O)CN2CCN(CC(=O)O)CCN(CC(=O)O)CCN(CC(=O)O)CC2)CSSC[C@@H](C(=O)N[C@H](CO)[C@@H](C)O)NC1=O [^natLu-DOTA-NOC, metal not drawn, reference compound]
